Data on 45 molecules can be found in patent US20190031618A1, “BENZIMIDAZOLE DERIVATIVES USEFUL AS CB-1 INVERSE AGONISTS” (Janssen Pharmaceutica NV, priority 2015, published 2019).

Structures are written as SMILES. Bounds are passed on as bounds.

Assay [1] addresses Human CB2R (Cannabinoid receptor 2) (Homo sapiens, UniProt P34972). Description: CB-2 in vitro cAMP (HTRF) assay. Particulars: HEK cells, cAMP HTRF, 250 nM forskolin; mean where tested more than once; read-out: CB2 HEK_cAMP EC50. Format: cell-based. In short, it runs like this:
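Competitive HTRF read-out (d2-labelled cAMP vs cryptate antibody) quantifies cAMP in stably transfected HEK-293 cells, seeded the day before at 4E5 cells/mL. Stimulation buffer: HBSS, 5 mM HEPES, 0.1% BSA, 0.5 mM IBMX; forskolin prepared at 1.5 μM in buffer; compounds serially diluted 1/3 in DMSO.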

The target of assay [2] is Human CB1R (Cannabinoid receptor 1) (Homo sapiens, UniProt P21554). Description: CB-1 in vitro cAMP (HTRF) assay. Particulars: HEK cells, cAMP HTRF, 250 nM forskolin; mean where tested more than once; read-out: CB1 HEK_cAMP EC50. Format: cell-based. In short, it runs like this:
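Intracellular cAMP from HTRF ratio (d2-cAMP vs Eu-cryptate anti-cAMP), converted to nM via per-plate standards, in stable human CB1R HEK-293 cells.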

Chain of Human CB2R (Cannabinoid receptor 2) (P34972 whole entry): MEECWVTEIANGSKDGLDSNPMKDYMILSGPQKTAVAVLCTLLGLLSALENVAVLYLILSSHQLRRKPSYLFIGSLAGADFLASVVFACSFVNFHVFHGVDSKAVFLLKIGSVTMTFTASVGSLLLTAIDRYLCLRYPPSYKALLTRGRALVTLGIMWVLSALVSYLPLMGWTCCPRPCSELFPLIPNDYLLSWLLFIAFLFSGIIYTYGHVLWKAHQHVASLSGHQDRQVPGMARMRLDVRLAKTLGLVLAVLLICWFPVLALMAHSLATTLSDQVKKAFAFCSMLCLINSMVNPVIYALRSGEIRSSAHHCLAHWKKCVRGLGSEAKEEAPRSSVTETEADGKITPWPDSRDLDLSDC
Chain of Human CB1R (Cannabinoid receptor 1) (P21554 whole entry): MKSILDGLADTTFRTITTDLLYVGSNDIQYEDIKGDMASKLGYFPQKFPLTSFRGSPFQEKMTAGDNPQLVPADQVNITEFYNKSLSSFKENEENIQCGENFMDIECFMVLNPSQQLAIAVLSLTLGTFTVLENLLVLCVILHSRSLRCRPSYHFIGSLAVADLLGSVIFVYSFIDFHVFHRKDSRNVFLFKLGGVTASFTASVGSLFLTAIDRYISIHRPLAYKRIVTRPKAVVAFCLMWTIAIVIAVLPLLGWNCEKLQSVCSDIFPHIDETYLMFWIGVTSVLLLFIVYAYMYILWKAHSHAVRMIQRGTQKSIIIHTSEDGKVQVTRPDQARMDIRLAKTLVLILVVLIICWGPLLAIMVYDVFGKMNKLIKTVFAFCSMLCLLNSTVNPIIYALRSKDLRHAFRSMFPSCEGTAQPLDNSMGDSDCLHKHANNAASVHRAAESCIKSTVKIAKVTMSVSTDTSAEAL

Turning to `CCOC(=O)N1CCC(n2c(Cl)nc3ccc(C(c4ccc(Cl)cc4)c4nccs4)cc32)CC1` (stereo not drawn) [Example 422], the concentration giving a half-maximal response (EC50) was > 10000 nM in assay [1] and 598 nM in assay [2].

For the molecule `Clc1ccc(-c2nc3ccc(C(c4ccc(Cl)cc4)c4nccs4)cc3n2C2CCCCC2)cc1` (stereo not drawn) [Example 442], the values for the EC50 in assay [1] and in assay [2] were > 10000 nM and 3400 nM, respectively.

For the molecule `NC(=O)COc1ccc(S(=O)(=O)N2CCC(n3c(C4CC4)nc4ccc(C(c5ccc(Cl)cc5)c5ccc(Cl)cc5)cc43)CC2)cc1` [Example 249], the EC50 in assay [1] was determined as 1710 nM; in assay [2] it was 5 nM.

`Clc1ccc(C(c2ccc3ncn(CCc4cccc(Cl)c4)c3c2)c2nccs2)cc1` (stereo not drawn) [Example 438]: the figures for the EC50 in assay [1] and in assay [2] were > 10000 nM and 315 nM, respectively.

On to `O=S(=O)(c1ccc(O)cc1)N1CCC(n2c(C3CC3)nc3ccc(C(c4ccc(Cl)cc4)c4ccc(Cl)cc4)cc32)CC1` [Example 257], for which the EC50 in assay [1] was > 10000 nM; in assay [2], 5.4 nM.

Consider `Cc1cc(S(=O)(=O)N2CCC(n3c(C4CC4)nc4ccc(C(c5ccc(Cl)cc5)c5ccc(Cl)cc5)cc43)CC2)ccc1C(N)=O` [Example 206], for which the EC50 in assay [1] is > 10000 nM; in assay [2] it was 101 nM.

Take `O=C(c1nc[nH]n1)N1CCC(n2c(C3CC3)nc3ccc(C(c4ccc(Cl)cc4)c4ccc(Cl)cc4)cc32)CC1` [Example 201]: the figures for the EC50 in assay [1] and in assay [2] were 990 nM and 63.8 nM, respectively.

`O=C(O)COc1ccc(N2CCC(n3c(C4CC4)nc4ccc(C(c5ccc(Cl)cc5)c5ccc(Cl)cc5)cc43)CC2)cc1` [Example 152]: the EC50 was found to be 6400 nM in assay [1] and 1590 nM in assay [2].

As for `NC(=O)c1ccc(Cn2c(C3CC3)nc3ccc(C(c4ccc(Cl)cc4)c4ccc(Cl)cc4)cc32)cc1` [Example 133], the EC50 is 3500 nM in assay [1] and 812 nM in assay [2].

Turning to `O=C(O)c1cc(CN2CCC(n3c(C4CC4)nc4ccc(C(c5ccc(Cl)cc5)c5ccc(Cl)cc5)cc43)CC2)ccc1O` [Example 81], the EC50 in assay [1] stood at 3200 nM; in assay [2] it was 14.1 nM.

On to `COC(=O)c1cnc(N2CCC(Cn3c(C4CC4)nc4ccc(C(c5ccc(Cl)cc5)c5ccc(Cl)cc5)cc43)CC2)nc1` [Example 5], for which the EC50 in assay [1] is 632 nM; in assay [2], 33 nM.

With `NC(=O)c1cccc(S(=O)(=O)N2CCC(n3c(C4CC4)nc4ccc(C(c5ccc(Cl)cc5)c5ccc(Cl)cc5)cc43)CC2)c1` [Example 260], the EC50 was > 10000 nM in assay [1] and 1.5 nM in assay [2].

Consider `CCOC(=O)c1nc2ccc(C(c3ccc(Cl)cc3)c3nccs3)cc2n1C1CCN(S(=O)(=O)C(F)(F)F)CC1` (stereo not drawn) [Example 387], for which the concentration giving a half-maximal response (EC50) in assay [1] is > 10000 nM; in assay [2], 551 nM.

As to `O=S(=O)(NCCCn1c(C2CC2)nc2ccc(C(c3ccc(Cl)cc3)c3ccc(Cl)cc3)cc21)c1cccc(Br)c1` [Example 9], the EC50 in assay [1] came to 798 nM; in assay [2] it was 17 nM.

Consider `O=C(O)c1cc(S(=O)(=O)N2CCC(n3c(C4CC4)nc4ccc(C(c5ccc(Cl)cc5)c5ccc(Cl)cc5)cc43)CC2)ccc1Cl` [Example 214], for which the EC50 in assay [1] came out at 5050 nM; in assay [2] it was 22.5 nM.

With `O=S(=O)(N1CCC(O)(Cn2c(C3CC3)nc3ccc(C(c4ccc(Cl)cc4)c4ccc(Cl)cc4)cc32)CC1)C(F)(F)F` [Example 295], the EC50 in assay [1] was found to be 9000 nM; in assay [2], 5 nM.

Consider `O=C(O)c1ccc(O)c(CN2CCC(n3c(C4CC4)nc4ccc(C(c5ccc(Cl)cc5)c5ccc(Cl)cc5)cc43)CC2)c1` [Example 82], for which the EC50 is > 42000 nM in assay [1] and 995 nM in assay [2].

For `O=C(O)c1cccc(CN2CCC(Cn3c(C4CC4)nc4ccc(C(c5ccc(Cl)cc5)c5ccc(Cl)cc5)cc43)CC2)c1` [Example 10], the EC50 in assay [1] was 1750 nM; in assay [2], 322 nM.

Regarding `O=C(O)c1ccc(C(O)(c2ccc(Cl)cc2)c2ccc3nc(C4CC4)n(C4CCN(S(=O)(=O)C(F)(F)F)CC4)c3c2)cc1` (stereo not drawn) [Example 150], the values for the EC50 in assay [1] and in assay [2] were > 10000 nM and 972 nM, respectively.

Turning to `Cc1cc(C(=O)O)sc1S(=O)(=O)N1CCC(n2c(C3CC3)nc3ccc(C(c4ccc(Cl)cc4)c4ccc(Cl)cc4)cc32)CC1` [Example 218], the EC50 in assay [1] stood at 1440 nM; in assay [2], 7.2 nM.

Take `CCOC(=O)N1CCC(n2c(C(F)(F)F)nc3ccc(C(c4ccc(Cl)cc4)c4nccs4)cc32)CC1` (stereo not drawn) [Example 415]: the EC50 in assay [1] and in assay [2] was > 10000 nM throughout.

Take `CCOC(=O)N1CCC(n2c(C3CC3)nc3ccc(C(c4ccc(Cl)cc4)c4nccs4)cc32)CC1` (stereo not drawn) [Example 421]: the figures for the EC50 in assay [1] and in assay [2] were > 10000 nM and 112 nM, respectively.

Regarding `Cc1cc(S(=O)(=O)N2CCC(n3c(C4CC4)nc4ccc(C(c5ccc(Cl)cc5)c5ccc(Cl)cc5)cc43)CC2)ccc1C(=O)O` [Example 207], the EC50 in assay [1] came to 4660 nM; in assay [2], 6.4 nM.

For the molecule `O=C(O)c1ccc(S(=O)(=O)N2CCC(n3c(C4CC4)nc4ccc(C(c5ccc(Cl)cc5)c5ccc(Cl)cc5)cc43)CC2)cc1C(F)(F)F` [Example 166], the EC50 was 5020 nM in assay [1] and 3.7 nM in assay [2].

In the case of `O=C(O)COCC(c1ccc(Cl)cc1)(c1ccc(Cl)cc1)c1ccc2nc(C3CC3)n(C3CCN(S(=O)(=O)C(F)(F)F)CC3)c2c1` [Example 143], the EC50 was > 10000 nM in assay [1] and 3920 nM in assay [2].

As to `Clc1ccc(C(c2ccc(Cl)cc2)c2ccc3nc(C4CC4)n(CCOc4cccc(Br)c4)c3c2)cc1` [Example 7], the EC50 in assay [1] was determined as 7600 nM; in assay [2] it was 26.7 nM.

`O=S(=O)(N1CCC(n2c(C3CCC3)nc3ccc(C(c4ccc(Cl)cc4)c4nccs4)cc32)CC1)C(F)(F)F` (stereo not drawn) [Example 391]: the EC50 in assay [1] was > 10000 nM; in assay [2], 60 nM.

Consider `NC(=O)c1ccc(S(=O)(=O)N2CCC(n3c(C4CC4)nc4ccc(C(c5ccc(Cl)cc5)c5ccc(Cl)cc5)cc43)CC2)cc1F` [Example 189], for which the 50% effective concentration (EC50) was > 10000 nM in assay [1] and 29.5 nM in assay [2].

For `CCc1nc2ccc(C(c3ccc(Cl)cc3)c3ccc(Cl)cc3)cc2n1CCc1ccc(C(F)(F)F)cc1` [Example 314], the values for the EC50 in assay [1] and in assay [2] were 2790 nM and 20.1 nM, respectively.

For `CCc1nc2ccc(C(c3ccc(Cl)cc3)c3nccs3)cc2n1CCc1cccc(Cl)c1` (stereo not drawn) [Example 409], the values for the EC50 in assay [1] and in assay [2] were > 10000 nM and 47.8 nM, respectively.

`O=C(O)C(c1ccc(Cl)cc1)(c1ccc(Cl)cc1)c1ccc2nc(C3CC3)n(CC3CCN(S(=O)(=O)C(F)(F)F)CC3)c2c1` [Example 12]: the concentration giving a half-maximal response (EC50) in assay [1] and in assay [2] was > 10000 nM in each case.

On to `Cc1ccc(C(c2ccc(C)cc2)c2ccc3nc(C4CC4)n(C4CCN(Cc5cccc(C(=O)O)c5)CC4)c3c2)cc1` [Example 96], for which the EC50 stood at 7920 nM in assay [1] and 27.3 nM in assay [2].

`O=C(O)c1ccc(S(=O)(=O)N[C@H]2CC[C@@H](n3c(C4CC4)nc4ccc(C(c5ccc(Cl)cc5)c5ccc(Cl)cc5)cc43)CC2)cc1` [Example 42]: the EC50 in assay [1] came to 8700 nM; in assay [2], 90.8 nM.

As to `CCc1csc(C(c2ccc(Cl)cc2)c2ccc3nc(-c4ccc(Cl)cc4)n(Cc4ccc(Cl)cc4)c3c2)n1` (stereo not drawn) [Example 456], the values for the EC50 in assay [1] and in assay [2] were > 9200 nM and > 10000 nM, respectively.

On to `O=C(O)c1cccc(CN2CCC(n3c(C4CC4)nc4ccc(C(c5ccccc5)c5ccc(Cl)cc5)cc43)CC2)c1` (stereo not drawn) [Example 101], for which the EC50 was > 10000 nM in assay [1] and 28.5 nM in assay [2].

For the molecule `O=C(O)c1csc(CN2CCC(n3c(C4CC4)nc4ccc(C(c5ccc(Cl)cc5)c5ccc(Cl)cc5)cc43)CC2)c1` [Example 130], the EC50 is 8100 nM in assay [1] and 15.5 nM in assay [2].

For the molecule `NC(=O)c1ccc(S(=O)(=O)N2CCC(n3c(C4CC4)nc4ccc(C(c5ccc(Cl)cc5)c5ccc(Cl)cc5)cc43)CC2)cc1C(F)(F)F` [Example 184], the values for the EC50 in assay [1] and in assay [2] were > 10000 nM and 31.4 nM, respectively.

With `OC(Cn1c(C2CC2)nc2ccc(C(c3ccc(Cl)cc3)c3ccc(Cl)cc3)cc21)c1ccccc1` (single isomer, unassigned) [Example 289], the EC50 in assay [1] was > 10000 nM; in assay [2], 29.2 nM.

Consider `Clc1ccc(C(c2ccc(Cl)cc2)c2ccc3nc(C4CC4)n(C4Cc5ccccc5C4)c3c2)cc1` [Example 300], for which the EC50 was > 10000 nM in assay [1] and 163 nM in assay [2].

As for `O=C(NCCO)c1cccc(CN2CCC(n3c(C4CC4)nc4ccc(C(c5ccc(Cl)cc5)c5ccc(Cl)cc5)cc43)CC2)c1` [Example 70], the EC50 in assay [1] is 5820 nM; in assay [2], 8.3 nM.

For `Clc1ccc(C(c2ccc3nc(C4CC4)n(Cc4ccccn4)c3c2)c2nccs2)cc1` (stereo not drawn) [Example 403], the EC50 in assay [1] is > 10000 nM; in assay [2], 569 nM.

For the molecule `CC(Cc1ccc(Cl)cc1)n1c(C(F)F)nc2ccc(C(c3ccc(Cl)cc3)c3nccs3)cc21` (stereo not drawn) [Example 329], the values for the EC50 in assay [1] and in assay [2] were > 10000 nM and 379 nM, respectively.

For `NC(=O)c1ccc(CN2CCC(n3c(C4CC4)nc4ccc(C(c5ccc(Cl)cc5)c5ccc(Cl)cc5)cc43)CC2)cc1` [Example 138], the concentration for a half-maximal effect (EC50) came out at 3900 nM in assay [1] and 13.9 nM in assay [2].

`O=C(O)CCC(=O)N1CCC(n2c(C3CC3)nc3ccc(C(c4ccc(Cl)cc4)c4ccc(Cl)cc4)cc32)CC1` [Example 269]: the EC50 was > 10000 nM in assay [1] and 1030 nM in assay [2].

As to `COc1cccc(-n2c(C3CC3)nc3ccc(C(c4ccc(Cl)cc4)c4ccc(Cl)cc4)cc32)c1` [Example 181], the EC50 in assay [1] is > 10000 nM; in assay [2], 25 nM.

In general, EC50 refers to the midpoint of the concentration-response curve.
